# Data: ChEMBL document CHEMBL3885861, “Open TG-GATES”
# Species: Rattus norvegicus
# Assay: Open TG-GATES - Regimen: Single
# Format: toxicity, organism-based, Sprague-Dawley
# Set-up: regimen Single, gender Male, age 6 weeks
# Details: in vivo, po, 2000 mg/kg, route gavage, dose level High; for APTT / Bas / Eos / Fbg / Hb / Ht / Lym / MCH / MCHC / MCV / Mono / Neu / PT / Plat / RBC / Ret / WBC: tissue Blood; for KIDNEY_L / KIDNEY_R / KIDNEY_TOTAL: tissue Kidney; for LIVER: tissue Liver; for A/G / ALP / ALT / AST / BUN / CRE / Ca / Cl / DBIL / GLC / IP / K / LDH / Na / PL / RALB / TBIL / TC / TG / TP / gamma-GTP: tissue Plasma
structure (smiles),measurement,setting,value
COc1ccc(O)c(C(C)(C)C)c1.COc1ccc(O)cc1C(C)(C)C [BUTYLATED HYDROXYANISOLE],TERMINAL_BW,9 h,199.8 g
same,APTT,9 h,17.5 s
same,Bas,9 h,0.2%
same,Eos,9 h,0.7%
same,Fbg,9 h,289 mg/dL
same,Hb,9 h,13.9 g/dL
same,Ht,9 h,40.9%
same,Lym,9 h,68.4%
same,MCH,9 h,20.7 pg
same,MCHC,9 h,34%
same,MCV,9 h,60.9 fL
same,Mono,9 h,1.6%
same,Neu,9 h,28.5%
same,PT,9 h,13 s
same,Plat,9 h,141.5 x10_4/uL
same,RBC,9 h,671.8 x10_4/ul
same,Ret,9 h,7%
same,WBC,9 h,76.1 x10_2/uL
same,KIDNEY_L,9 h,0.9 g
same,KIDNEY_R,9 h,0.9 g
same,KIDNEY_TOTAL,9 h,1.8 g
same,LIVER,9 h,7.2 g
same,A/G,9 h,0.8
same,ALP,9 h,1379.8 IU/L
same,ALT,9 h,40.8 IU/L
same,AST,9 h,69 IU/L
same,BUN,9 h,9.2 mg/dL
same,CRE,9 h,0.2 mg/dL
same,Ca,9 h,10.9 mg/dL
same,Cl,9 h,108.2 meq/L
same,DBIL,9 h,0.03 mg/dL
same,GLC,9 h,167.6 mg/dL
same,IP,9 h,10.2 mg/dL
same,K,9 h,4 meq/L
same,LDH,9 h,58.6 IU/L
same,Na,9 h,143.6 meq/L
same,PL,9 h,141.4 mg/dL
same,RALB,9 h,2.7 g/dL
same,TBIL,9 h,0.096 mg/dL
same,TC,9 h,87.6 mg/dL
same,TG,9 h,42.2 mg/dL
same,TP,9 h,5.9 g/dL
same,gamma-GTP,9 h,1 IU/L
same,TERMINAL_BW,24 h,207.8 g
same,APTT,24 h,16.8 s
same,Bas,24 h,0.2%
same,Eos,24 h,0.8%
same,Fbg,24 h,289.8 mg/dL
same,Hb,24 h,13.7 g/dL
same,Ht,24 h,39.6%
same,Lym,24 h,78.6%
same,MCH,24 h,21.2 pg
same,MCHC,24 h,34.6%
same,MCV,24 h,61.3 fL
same,Mono,24 h,2.2%
same,Neu,24 h,17.4%
same,PT,24 h,12.3 s
same,Plat,24 h,155.8 x10_4/uL
same,RBC,24 h,646.8 x10_4/ul
same,Ret,24 h,5.8%
same,WBC,24 h,68 x10_2/uL
same,KIDNEY_L,24 h,0.9 g
same,KIDNEY_R,24 h,0.9 g
same,KIDNEY_TOTAL,24 h,1.8 g
same,LIVER,24 h,9.3 g
same,A/G,24 h,0.8
same,ALP,24 h,1603 IU/L
same,ALT,24 h,53 IU/L
same,AST,24 h,73.6 IU/L
same,BUN,24 h,12.6 mg/dL
same,CRE,24 h,0.2 mg/dL
same,Ca,24 h,11.5 mg/dL
same,Cl,24 h,108.6 meq/L
same,DBIL,24 h,0.044 mg/dL
same,GLC,24 h,155.2 mg/dL
same,IP,24 h,8.5 mg/dL
same,K,24 h,4.2 meq/L
same,LDH,24 h,82.4 IU/L
same,Na,24 h,142.8 meq/L
same,PL,24 h,152.2 mg/dL
same,RALB,24 h,2.7 g/dL
same,TBIL,24 h,0.088 mg/dL
same,TC,24 h,93.4 mg/dL
same,TG,24 h,217 mg/dL
same,TP,24 h,5.9 g/dL
same,gamma-GTP,24 h,1 IU/L
